# Tests used:
# hPD1/hPD-L1 interaction = hPD1/hPD-L1 interaction (Homo sapiens (Human), UniProt Q9NZQ7); assay: HTRF assay of PD-1/PD-L1 interaction; format: binding
# PD-L1 [1] = target: T1, PD-L1 (Homo sapiens (Human), UniProt Q9NZQ7); assay: NMR binding assay (macromolecule-based 1D 1H NMR); conditions: PD-L1 10 μM, protein:ligand 1:1 and 1:10
# Target sequence in this assay (Q9NZQ7 18-134): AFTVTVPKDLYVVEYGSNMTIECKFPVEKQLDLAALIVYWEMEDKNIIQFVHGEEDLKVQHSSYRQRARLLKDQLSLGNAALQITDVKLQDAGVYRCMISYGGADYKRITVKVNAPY
# PD-L1 [2] = target: T1, PD-L1; assay: Differential scanning calorimetry (DSC) of PD-L1; format: binding; conditions: PD-L1 32 μM, ligand 32 μM
# Target sequence in this assay (Q9NZQ7 18-134): as above
# PD-L1 [3] = target: T1, PD-L1; conditions: PD-L1 versus PD-1
# Target sequence in this assay (Q9NZQ7 19-290): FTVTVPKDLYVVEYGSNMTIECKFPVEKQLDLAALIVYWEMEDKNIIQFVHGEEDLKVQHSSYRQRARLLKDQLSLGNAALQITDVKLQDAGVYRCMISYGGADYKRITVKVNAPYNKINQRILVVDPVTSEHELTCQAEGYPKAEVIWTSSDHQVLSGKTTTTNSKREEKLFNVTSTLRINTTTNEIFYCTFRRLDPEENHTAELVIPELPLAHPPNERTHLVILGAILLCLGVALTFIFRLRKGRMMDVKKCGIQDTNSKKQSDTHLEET
# hPD1/hPD-L1 interaction, sequence (Q9NZQ7 19-238): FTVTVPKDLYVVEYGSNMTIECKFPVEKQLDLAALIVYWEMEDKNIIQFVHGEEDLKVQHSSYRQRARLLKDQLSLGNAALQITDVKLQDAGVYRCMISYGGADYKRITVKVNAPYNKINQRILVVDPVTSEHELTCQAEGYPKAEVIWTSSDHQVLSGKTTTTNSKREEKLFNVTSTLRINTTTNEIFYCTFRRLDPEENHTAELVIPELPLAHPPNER
Structure (SMILES),IC50 (hPD1/hPD-L1 interaction; Table 2),also measured
COC(=O)[C@H](CO)Nc1ncnc(NCc2cccc(-c3ccccc3)c2C)n1 [Compound 82],> 10 µM,
Cc1c(CNc2ncnc(NCCNS(C)(=O)=O)n2)cccc1-c1ccc2c(c1)OCCO2 [Compound 85],> 10 µM,
CC(=O)NCCNc1ncnc(NCc2cccc(-c3ccccc3)c2C)n1 [Compound 80],> 10 µM,
COc1nc(OCc2cccc(-c3ccccc3)c2C)ccc1CNCCNC(C)=O [BMS202],,formation of the ligand-PD-L1 complex (1D 1H NMR signal changes) (PD-L1 [1]): decrease in the intensity of the free protein signals; change in the Tm of the protein (ΔTm) (PD-L1 [2]): 6.5 °C; Tm of PD-L1 in the presence of ligand (PD-L1 [2]; no ligand Tm 46.5 (±0.5)): 53.0 (±0.5) ° C.
CC(=O)NCCNc1ncnc(NCc2cccc(-c3ccc4c(c3)OCCO4)c2C)n1 [Compound 84],> 10 µM,
Cc1c(COc2ncnc(N[C@@H](CO)C(=O)O)n2)cccc1-c1ccccc1 [Compound 77],> 10 µM,
CC(=O)NCCNc1ncnc(OCc2cccc(-c3ccccc3)c2C)n1 [Compound 4],,"formation of the ligand-PD-L1 complex (1D 1H NMR signal changes) (PD-L1 [1]): formation of the compound 4-PD-L1 complex; specific binding (PD-L1 [3]): capable of specifically binding PD-L1 and not PD-1; IC50 (hPD1/hPD-L1 interaction; HTRF): 0.115 µM; IC50 (hPD1/hPD-L1 interaction; HTRF, Table 1): 0.115 ± 0.024 µM"
Cc1c(CNc2ncnc(N[C@@H](CO)C(=O)O)n2)cccc1-c1ccccc1 [Compound 83],> 10 µM,
COC(=O)[C@H](CO)Nc1ncnc(OCc2cccc(-c3ccccc3)c2C)n1 [Compound 76],0.692 µM,
Cc1c(CNc2ncnc(NCCNS(C)(=O)=O)n2)cccc1-c1ccccc1 [Compound 81],> 10 µM,

# Source: US20240327387A1, “TRIAZINE DERIVATIVES FOR THE TREATMENT OF TUMOURS AND NEURODEGENERATIVE DISORDERS” (UNIVERSITA' DEGLI STUDI DI MILANO, priority 2021, published 2024)
